Experimental data as given in paper PMC5468247, “Development of a selective agonist for relaxin family peptide receptor 3” (Scientific Reports, 2017).

Key:
[1] = target: T1, human RXFP4 (Homo sapiens, UniProt Q8TDU9); assay: Receptor activation assay, CRE-controlled NanoLuc reporter; type: cell-based; details: for activation potency towards RXFP4, in words: compared with R3/I5
T1 construct: expressed in transfected cells; host or cells: HEK293T
Description: (§1) HEK293T cells transiently cotransfected with a CRE-controlled NanoLuc reporter vector and the expression construct of human RXFP3 or human RXFP4 were used for activation assays. The measured bioluminescence data are expressed as means ± SE (n = 3) and fitted to sigmoidal or linear curves using SigmaPlot 10.0.
(§2) Briefly, HEK293T cells were transiently cotransfected with the NanoLuc reporter vector pNL1.2/CRE and the expression construct of human RXFP3 or human RXFP4. On the next day, transfected cells were trypsinised, seeded into 96-well plates, and continuously cultured for 24–36 h to ~90% confluence. To initiate activation assays, medium was removed and activation solution (serum-free DMEM medium plus 1% bovine serum albumin) containing 1.0 μM of forskolin and various concentrations of peptide was added (100 μl/well). After continuous culturing at 37 °C for 4 h, activation solution was removed and cells were lysed with lysis solution (100 μl/well, Promega). Cell lysates were then transferred to a white opaque 96-well plate (50 μl/well), mixed with freshly diluted substrate (50 μl/well), and bioluminescence was immediately measured on a SpectraMax M5 plate reader (Molecular Devices) in luminescence mode. The measured data were expressed as means ± SE (n = 3) and fitted to sigmoidal or linear curves using SigmaPlot 10.0 software.

[2] = target: T2, human RXFP3 (Homo sapiens, UniProt Q9NSD7); assay: as above; type: cell-based; details: CRE-NanoLuc reporter, human RXFP3; compared with R3/I5
T2 construct: expressed in transfected cells; host or cells: HEK293T
T2 sequence (Q9NSD7 1-469): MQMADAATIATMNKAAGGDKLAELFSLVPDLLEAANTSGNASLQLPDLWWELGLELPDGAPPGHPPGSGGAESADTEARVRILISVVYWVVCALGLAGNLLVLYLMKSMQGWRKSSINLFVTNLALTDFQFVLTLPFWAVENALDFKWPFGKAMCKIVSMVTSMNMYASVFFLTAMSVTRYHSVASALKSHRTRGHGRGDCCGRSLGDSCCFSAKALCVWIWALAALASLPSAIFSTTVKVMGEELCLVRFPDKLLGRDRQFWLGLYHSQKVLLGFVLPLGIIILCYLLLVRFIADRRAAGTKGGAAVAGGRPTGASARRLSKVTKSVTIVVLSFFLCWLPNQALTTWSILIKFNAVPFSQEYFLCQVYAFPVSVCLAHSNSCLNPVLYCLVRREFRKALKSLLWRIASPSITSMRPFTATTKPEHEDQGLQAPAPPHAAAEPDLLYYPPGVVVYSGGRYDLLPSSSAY
Description: as §1, §2

[3] = target: T1, human RXFP4; assay: Receptor binding assay, NanoLuc-conjugated R3/I5 tracer competition; details: compared with R3/I5
Protocol: (§3) Specific binding data are expressed as means ± SE (n = 3) and fitted to sigmoidal curves using SigmaPlot 10.0 software.
(§4) Briefly, HEK293T cells were transiently transfected with an expression construct of human RXFP3 or human RXFP4. On the next day, transfected cells were trypsinised, seeded into 96-well plates, and continuously cultured for 24–36 h to ~100% confluence. […] After incubation at 21 °C for 2 h, binding solution was removed and cells were washed twice with ice-cold phosphate-buffered saline (200 μl/well for each wash). Thereafter, cells were lysed by lysis solution (100 μl/well, Promega, Madison, WI, USA) and cell lysates were transferred to a white opaque 96-well plate (50 μl/well). After mixing with freshly diluted substrate (50 μl/well), bioluminescence was immediately measured on a SpectraMax M5 plate reader (Molecular Devices, Sunnyvale, CA, USA) in luminescence mode. […] The calculated specific binding data were expressed as means ± standard error (SE; n = 3) and fitted to sigmoidal curves using SigmaPlot 10.0 software.

[4] = target: T2, human RXFP3; assay: as above; details: compared with R3/I5
Protocol: as §3, §4

T1 sequence (Q8TDU9 whole entry): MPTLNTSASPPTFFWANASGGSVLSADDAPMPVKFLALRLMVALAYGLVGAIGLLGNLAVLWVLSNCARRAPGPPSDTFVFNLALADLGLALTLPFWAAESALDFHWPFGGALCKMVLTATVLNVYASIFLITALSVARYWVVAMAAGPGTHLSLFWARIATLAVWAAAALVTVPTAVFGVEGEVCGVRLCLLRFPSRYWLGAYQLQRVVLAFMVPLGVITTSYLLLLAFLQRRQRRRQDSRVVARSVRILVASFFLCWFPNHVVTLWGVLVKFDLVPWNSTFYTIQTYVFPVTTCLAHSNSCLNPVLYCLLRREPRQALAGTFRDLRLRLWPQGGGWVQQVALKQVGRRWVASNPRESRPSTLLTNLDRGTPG

activation potency towards RXFP3, in words [2]	binding potency towards RXFP4, in words [3]	binding potency towards RXFP3, in words [4]	activation potency towards RXFP4, in words [1]	Structure (SMILES)	fold lower activation potency towards RXFP4 compared with R3/I5 ([1]; relative to R3/I5)
retained full activation potency	retained full binding potency	retained full binding potency	retained full activation potency	CC[C@H](C)[C@@H]1NC(=O)[C@H](Cc2ccccc2)NC(=O)[C@H](CCC(=O)O)NC(=O)[C@H](CCCNC(=N)N)NC(=O)CNC(=O)[C@@H](NC(=O)[C@H](CC(C)C)NC(=O)[C@H](CCCNC(=N)N)NC(=O)[C@@H](NC(=O)CNC(=O)[C@H](Cc2ccc(O)cc2)NC(=O)[C@@H]2CCCN2C(=O)[C@H](C)NC(=O)[C@H](C)NC(=O)[C@H](CCCNC(=N)N)NC(=O)[C@@H]2CCC(=O)N2)C(C)C)CSSC[C@@H]2NC(=O)[C@@H](NC(=O)[C@H](CC(C)C)NC(=O)[C@@H](NC(=O)[C@H](CCC(N)=O)NC(=O)[C@H](CC(C)C)NC(=O)[C@H](CC(=O)O)NC(=O)[C@H](CCC(N)=O)NC(=O)[C@H](CCCNC(=N)N)NC(=O)[C@H](CO)NC(=O)[C@H](CCCNC(=N)N)NC(=O)[C@H](CCCNC(=N)N)NC(=O)[C@H](CO)NC(=O)[C@@H](N)CCCNC(=N)N)[C@@H](C)O)CSSC[C@H](NC(=O)CNC(=O)[C@H](CC(=O)O)NC(=O)[C@H]([C@@H](C)O)NC2=O)C(=O)N[C@@H](CO)C(=O)N[C@@H](CCSC)C(=O)N[C@@H]([C@@H](C)O)C(=O)N[C@@H](CC(=O)O)C(=O)N[C@@H](CC(C)C)C(=O)N[C@@H](CO)C(=O)N[C@@H](C)C(=O)N[C@@H](CC(C)C)C(=O)N[C@H](C(=O)O)CSSC[C@@H](C(=O)NCC(=O)N[C@@H](C)C(=O)N[C@@H](CO)C(=O)N[C@@H](CCCNC(=N)N)C(=O)N[C@@H](Cc2c[nH]c3ccccc23)C(=O)O)NC(=O)[C@H]([C@@H](C)O)NC(=O)[C@H](Cc2ccccc2)NC(=O)[C@H]([C@@H](C)CC)NC(=O)[C@H](C(C)C)NC(=O)[C@H](C)NC(=O)[C@H](CCCNC(=N)N)NC1=O [[G(B24)A]R3/I5]	
lost all activation potency	retained low binding potency	retained low binding potency	lost all activation potency	CC[C@H](C)[C@@H]1NC(=O)[C@H](Cc2ccccc2)NC(=O)[C@H](CCC(=O)O)NC(=O)[C@H](CCCNC(=N)N)NC(=O)CNC(=O)[C@@H](NC(=O)[C@H](CC(C)C)NC(=O)[C@H](CCCNC(=N)N)NC(=O)[C@@H](NC(=O)CNC(=O)[C@H](Cc2ccc(O)cc2)NC(=O)[C@@H]2CCCN2C(=O)[C@H](C)NC(=O)[C@H](C)NC(=O)[C@H](CCCNC(=N)N)NC(=O)[C@@H]2CCC(=O)N2)C(C)C)CSSC[C@@H]2NC(=O)[C@@H](NC(=O)[C@H](CC(C)C)NC(=O)[C@@H](NC(=O)[C@H](CCC(N)=O)NC(=O)[C@H](CC(C)C)NC(=O)[C@H](CC(=O)O)NC(=O)[C@H](CCC(N)=O)NC(=O)[C@H](CCCNC(=N)N)NC(=O)[C@H](CO)NC(=O)[C@H](CCCNC(=N)N)NC(=O)[C@H](CCCNC(=N)N)NC(=O)[C@H](CO)NC(=O)[C@@H](N)CCCNC(=N)N)[C@@H](C)O)CSSC[C@H](NC(=O)CNC(=O)[C@H](CC(=O)O)NC(=O)[C@H]([C@@H](C)O)NC2=O)C(=O)N[C@@H](CO)C(=O)N[C@@H](CCSC)C(=O)N[C@@H]([C@@H](C)O)C(=O)N[C@@H](CC(=O)O)C(=O)N[C@@H](CC(C)C)C(=O)N[C@@H](CO)C(=O)N[C@@H](C)C(=O)N[C@@H](CC(C)C)C(=O)N[C@H](C(=O)O)CSSC[C@@H](C(=O)NCC(=O)N[C@@H](CCC(=O)O)C(=O)N[C@@H](CO)C(=O)N[C@@H](CCCNC(=N)N)C(=O)N[C@@H](Cc2c[nH]c3ccccc23)C(=O)O)NC(=O)[C@H]([C@@H](C)O)NC(=O)[C@H](Cc2ccccc2)NC(=O)[C@H]([C@@H](C)CC)NC(=O)[C@H](C(C)C)NC(=O)[C@H](C)NC(=O)[C@H](CCCNC(=N)N)NC1=O [[G(B24)E]R3/I5]	

Structure (SMILES)	activation potency towards RXFP3, in words [2]	binding potency towards RXFP4, in words [3]	binding potency towards RXFP3, in words [4]	activation potency towards RXFP4, in words [1]	fold lower activation potency towards RXFP4 compared with R3/I5 ([1]; relative to R3/I5)
CC[C@H](C)[C@@H]1NC(=O)[C@H](Cc2ccccc2)NC(=O)[C@H](CCC(=O)O)NC(=O)[C@H](CCCNC(=N)N)NC(=O)CNC(=O)[C@@H](NC(=O)[C@H](CC(C)C)NC(=O)[C@H](CCCNC(=N)N)NC(=O)[C@@H](NC(=O)CNC(=O)[C@H](Cc2ccc(O)cc2)NC(=O)[C@@H]2CCCN2C(=O)[C@H](C)NC(=O)[C@H](C)NC(=O)[C@H](CCCNC(=N)N)NC(=O)[C@@H]2CCC(=O)N2)C(C)C)CSSC[C@@H]2NC(=O)[C@@H](NC(=O)[C@H](CC(C)C)NC(=O)[C@@H](NC(=O)[C@H](CCC(N)=O)NC(=O)[C@H](CC(C)C)NC(=O)[C@H](CC(=O)O)NC(=O)[C@H](CCC(N)=O)NC(=O)[C@H](CCCNC(=N)N)NC(=O)[C@H](CO)NC(=O)[C@H](CCCNC(=N)N)NC(=O)[C@H](CCCNC(=N)N)NC(=O)[C@H](CO)NC(=O)[C@@H](N)CCCNC(=N)N)[C@@H](C)O)CSSC[C@H](NC(=O)CNC(=O)[C@H](CC(=O)O)NC(=O)[C@H]([C@@H](C)O)NC2=O)C(=O)N[C@@H](CO)C(=O)N[C@@H](CCSC)C(=O)N[C@@H]([C@@H](C)O)C(=O)N[C@@H](CC(=O)O)C(=O)N[C@@H](CC(C)C)C(=O)N[C@@H](CO)C(=O)N[C@@H](C)C(=O)N[C@@H](CC(C)C)C(=O)N[C@H](C(=O)O)CSSC[C@@H](C(=O)N[C@@H](CO)C(=O)NCC(=O)N[C@@H](CO)C(=O)N[C@@H](CCCNC(=N)N)C(=O)N[C@@H](Cc2c[nH]c3ccccc23)C(=O)O)NC(=O)[C@H]([C@@H](C)O)NC(=O)[C@H](Cc2ccccc2)NC(=O)[C@H]([C@@H](C)CC)NC(=O)[C@H](C(C)C)NC(=O)[C@H](C)NC(=O)[C@H](CCCNC(=N)N)NC1=O [[G(B23)S]R3/I5]	lost all activation potency	retained high binding potency	retained considerable binding potency		~ 100 fold
